Molecular target: Substance-P receptor (Homo sapiens, UniProt P25103)
Assay: Antagonist at human NK1 receptor expressed in recombinant BacMam virus infected human U2OS cells assessed as inhibition of substance P-induced intracellular calcium release preincubated for 30 mins followed by substance P addition by Fluo-4 calcium dye-based FLIPR assay
Type: functional, cell-based

Chain of Substance-P receptor (P25103 whole entry): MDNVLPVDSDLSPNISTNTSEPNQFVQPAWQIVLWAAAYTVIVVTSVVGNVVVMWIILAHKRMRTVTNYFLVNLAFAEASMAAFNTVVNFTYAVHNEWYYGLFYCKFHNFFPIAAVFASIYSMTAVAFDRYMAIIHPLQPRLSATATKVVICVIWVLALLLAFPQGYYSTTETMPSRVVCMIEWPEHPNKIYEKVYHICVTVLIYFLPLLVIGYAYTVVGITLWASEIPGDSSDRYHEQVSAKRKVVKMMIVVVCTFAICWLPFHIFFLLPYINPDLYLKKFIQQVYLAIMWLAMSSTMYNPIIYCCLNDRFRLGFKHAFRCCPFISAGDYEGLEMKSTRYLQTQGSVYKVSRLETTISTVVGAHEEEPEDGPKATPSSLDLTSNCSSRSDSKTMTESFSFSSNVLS

| Compound | pKi (u2os) | Ki [nM] |
| --- | --- | --- |
| Cc1cc(F)ccc1[C@H]1C[C@@]2(CCC(C(N)=O)N2)CCN1C(=O)N(C)[C@H](C)c1cc(C(F)(F)F)cc(C(F)(F)F)c1 (stereo not given in full) | > 9 | – |
| Cc1cc(F)ccc1[C@H]1C[C@]2(CC[C@H](C(N)=O)N2)CCN1C(=O)N(C)[C@H](C)c1cc(C(F)(F)F)cc(C(F)(F)F)c1 | – | < 1 |
| Cc1cc(F)ccc1[C@H]1C[C@@]2(CCN1C(=O)N(C)[C@H](C)c1cc(C(F)(F)F)cc(C(F)(F)F)c1)CC(C(=O)O)CN2 (stereo not given in full) | – | < 1 |
| Cc1cc(F)ccc1[C@H]1C[C@]2(CC[C@@H](C(N)=O)N2)CCN1C(=O)N(C)Cc1cc(C(F)(F)F)cc(C(F)(F)F)c1 | – | < 1 |
| Cc1cc(F)ccc1[C@H]1C[C@]2(CC[C@H](C(N)=O)N2)CCN1C(=O)N(C)[C@@H](C)c1cc(C(F)(F)F)cc(C(F)(F)F)c1 | – | < 1 |
| Cc1cc(F)ccc1[C@H]1C[C@@]2(CCN1C(=O)N(C)[C@H](C)c1cc(C(F)(F)F)cc(C(F)(F)F)c1)NCC[C@@H]2C(=O)O | – | < 1 |
| Cc1cc(F)ccc1[C@H]1C[C@]2(CCCN2)CCN1C(=O)N(C)[C@H](C)c1cc(C(F)(F)F)cc(C(F)(F)F)c1 | – | < 1 |
| Cc1cc(F)ccc1[C@H]1C[C@]2(CC[C@@H](C(N)=O)N2)CCN1C(=O)N(C)[C@H](C)c1cc(C(F)(F)F)cc(C(F)(F)F)c1 | – | < 1 |
| Cc1cc(F)ccc1[C@H]1C[C@]2(CC[C@@H](C(N)=O)N2)CCN1C(=O)N(C)[C@@H](C)c1cc(C(F)(F)F)cc(C(F)(F)F)c1 | – | < 1 |
| Cc1cc(F)ccc1[C@H]1C[C@]2(CC[C@H](C(N)=O)N2)CCN1C(=O)N(C)Cc1cc(C(F)(F)F)cc(C(F)(F)F)c1 | – | < 1 |

— ChEMBL document CHEMBL3880415, “Spiro (Piperidine-4,2''-Pyrrolidine)-1-(3,5-Trifluoromethyl Phenyl) Methylcarboxamides As NK1 Tachikynin Receptor Antagonists” (2011)
